Test results as given in patent publication US12029715B2, “Precursor compounds for providing retinoids of the vitamin A5 pathway and uses thereof” (UNIVERSITY OF DEBRECEN, priority 2015, dated 2024).
Entries after “also recorded” stand apart in the source; their conditions may differ.

Experiments:
[1] = test system: differentiating monocyte-derived human dendritic cells; assay: DNA microarray in differentiating monocyte-derived dendritic cells; type: cell-based
Procedure: The generation and transcriptional analysis of differentiating DCs were performed as described previously [Szeles L et al. 2010]. Microarray data were deposited into the Gene Expression Omnibus database under accession no. GSE48573.
The generation and analysis of differentiating DCs were performed as described previously [Szeles L et al. 2010] with minor modifications. Briefly, human monocytes were isolated from healthy volunteer's buffy coat, obtained with a Regional Ethical Board permit from the Regional Blood Bank and isolated by Ficoll gradient centrifugation followed by immunomagnetic cell separation, and were cultured in the presence of GM-CSF and IL-4. Differentiating DCs were stimulated 18 h after […] by various agonists for 12 h. The ligands were used in the following concentrations: 10 μM (R)-9CDHRA, 10 μM (S)-9CDHRA, 1 μM 9cisRA, 100 nM LG100268, 1 μM GW3965, 1 μM Rosiglitazone (RSG), 1 μM GW1516, 100 nM AM580. Experiments were performed in biological triplicates. Samples were processed and hybridized to Human Genome U133 Plus 2.0 Arrays. Data were analysed using to GeneSpring 12.6.1 software. In detail, normalization was performed using RMA summarization algorithm. […] Microarray data were deposited into the Gene Expression Omnibus database under accession no. GSE48573.

[2] = test system: oligodendrocytes cell line 158N; assay: Metabolic conversion in mouse oligodendrocytes cell culture (LC-MS); type: in vitro ADME; details: for 9CDHRA levels in cells after treatment: 10^−5M for 18 h; for ATROL levels in cells after treatment: 10^−6M
How it was run: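 Mouse 158N oligodendrocytes at 70–80% confluency were treated with retinoid precursors or esters, with ethanol as vehicle, at 10^−6 M in one variant and from a 10^−2 M ethanol solution in the other. Cells were harvested after 18 h under limited light. Metabolites were analysed by LC-MS.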

[3] = test system: Rbp1−/−, Rxrγ−/− and WT mice; assay: Delayed non-match to place (DNMTP) working memory task in the T-maze; type: in vivo, mouse
Procedure: Behaviorally naïve groups of mice were tested in the DNMTP (delayed non-match to place) procedure in the T-maze according to a protocol previously described (Wietrzych et al., 2005), with modifications to facilitate pharmacological tests (Wietrzych-Schindler et al., 2011). Spontaneous alternation was evaluated in the Ymaze apparatus according to protocol described in detail below.
Specifically, in the present protocol, animals were first trained for 10 consecutive days with minimal inter-trial intervals (ITI) of about 15 sec, which was necessary to attain the criterion of 90% or more of correct choices during […] consecutive days (days 9-10). After this period ITI was increased semi-randomly by blocks of 3-6 min during 5 consecutive days (days 11-15 indicated) to determine “test ITI” for each animal, which was defined as the shortest ITI at which mice perform at chance level. From day 16 mice were tested using corresponding “test ITI” delays following vehicle injection on the day 16 (to test for the effect of vehicle alone) and following 9CDHROL (40 mg/kg) injection on day 17. Three mice were excluded from testing since their latency to choose the arm during the retention phase exceeded 3 min in more than one trial/day on three consecutive days (exclusion criterion). On the day 18 mice were again injected (IP) with 9CDHROL (40 mg/kg) and 9 hours later sacrificed for chemical analyses. Mice which received vehicle injections on three consecutive days were used as vehicle-treated controls for analyses of 9CDHROL metabolism. An additional group of 3 naïve mice was also injected with 9CDHROL (40 mg/kg) to test for 9CDHROL metabolism following acute treatment.
In this variant, animals were first trained for 9 consecutive days of with minimal inter-trial intervals (ITI) of about 15 sec, which was necessary to attain the criterion of 90% or more of correct choices during three consecutive days (days 7-9). After this period ITI was increased semi-randomly to 180, 360, 720 and for some WT mice also 1080 seconds so that each animal was tested 6 times with each interval during four consecutive days (days 10-13 indicated). From day 13 mice were tested only twice per week beginning with training session on day one (with minimal, 15 sec ITIs) and testing pharmacological treatments on the second day. Only one pharmacological treatment was tested every 7 days. To test pro-mnemonic activities of UVI2108 and (R)-9CDHRA inventors used a minimal ITI, at which mice performed at chance level (50%) and which was 6 min for the Rbp1−/− or Rxrγ−/− groups and 12 min for most WT mice with exception of two mice tested at 18 min. Four mice (two wild types and one of each knockout line), were excluded from testing since their latency to choose the arm during the retention phase exceeded 3 min in more than one trial/day on three consecutive days (exclusion criterion).
For behavioral analysis, 9CDHROL and 9CDHBC were dissolved in ethanol, and then mixed with sunflower oil, so that the final solution contained 3% ethanol. Vehicle treatments consisted of 3% ethanol solution in sunflower oil. For memory studies treatments with 9CDHRA were administered by intraperitoneal injections at volume/weight ratio 3 ml/kg at 7 am and 7 hours before the beginning of testing. For tests with animal model of chronic social defeat, different treatments were administered by intraperitoneal injections at volume/weight ratio 3 ml/kg at 10 mg/kg for each substance between 5-6 pm every second day of stress protocol immediately after the stress session starting from day 1 of the stress protocol.
Vehicle treatments consisted of 3% ethanol and 3% DMSO solution in sunflower oil. Treatments were administered by intraperitoneal injections at volume/weight ratio 3 ml/kg between 8-10 am and 5-6 h before the test as previously validated (Wietrzych-Schindler M, 2011).

[4] = Rbp1−/− mice, ITI of 6 min, acute treatment, (R)-9CDHRA 1 or 2 mg/kg

Structure (SMILES): CC(C=CC1=C(C)CCCC1(C)C)=CC=CC(C)CC(=O)O (stereo not drawn) [9CDHRA, 9-cis-13,14-dihydroretinoic acid]
- expression of genes induced by AM580 (RAR-RXR target genes) [1]: also induced
- transcripts regulated by LG268 (RXR-specific agonist) also regulated ([1]; 72 LG268 transcriptional targets): 68 out of 72
- 9CDHRA levels in cells after treatment [2]: very strong increase
- ATROL levels in cells after treatment [2]: a low conversion or induced increase

Structure (SMILES): CC1=C(/C=C/C(C)=C\C=C\C(C)CCO)C(C)(C)CCC1 (stereo not drawn) [9CDHROL, 9-cis-13,14-dihydroretinol]
- working memory performance in DNMTP task ([3]; wild type C57BL6N male mice, 40 mg/kg, 7-9 h after treatment, mean ITI of 13 min, 40 mg/kg): improved working memory performance; also recorded: significantly enhanced memory performance
- 9CDHRA levels in cells after treatment [2]: strong increase
- ATROL levels in cells after treatment [2]: a low conversion or induced increase
- 9CDHROL levels in cells after treatment ([2]; 10^−6 M, 18 hours): increases; also recorded: excellent/strongly
- conversion to 9CDHRA ([2]; data not shown): excellent precursor

Structure (SMILES): CC1=C(/C=C/C(C)=C\C=C\[C@H](C)CC(=O)O)C(C)(C)CCC1 [(R)-9CDHRA, (9Z,13R)-13,14-Dihydroretinoic Acid]
- working memory performance in DNMTP task [3, 4]: reversed working memory deficits; also recorded: improved memory performance
- correct choices in DNMTP task ([3]; Rxrγ−/− mice, ITI 6 min): 57±7 % of correct choices
- correct choices in DNMTP task ([3]; WT mice, 2 mg/kg, ITI of 12 or 18 min): about 70 % of correct choices
- working memory performance in DNMTP task ([3]; WT mice, ITI of 12 or 18 min): showed pro-mnemonic activity; also recorded: raised performance
- overlap in transcriptional changes with 9CRA [1]: about 80%
- share of all transcripts regulated by 9CRA that are similarly regulated by (R)-9CDHRA [1]: 85%
- transcripts similarly regulated by both (R)-9CDHRA and 9CRA ([1]; 10 μM (R)-9CDHRA, 1 μM 9CRA): 384
- number of transcripts regulated ([1]; 10 μM (R)-9CDHRA, 1 μM 9CRA, 12 h, FC>2): 518
- expression of genes that are direct targets of RXR permissive heterodimers (LXR-RXR, PPAR-RXR) and RAR-RXR ([1]; 9CDHRA 10 μM, 9CRA 1 μM, LG268 100 nM, GW3965 1 μM, RSG 1 μM, GW1516 1 μM, AM580 100 nM): induced the expression of genes; also recorded: induce the expression of many genes

Structure (SMILES): CC1(C)CCC(C)(C)c2cc(C3(c4ccc(C(=O)O)cc4)OCCO3)ccc21 [UVI2108, reference compound]
- working memory performance in DNMTP task [3, 4]: reversed memory deficits
- working memory performance in DNMTP task ([3]; Rxrγ−/− mice, ITI of 6 min): remained ineffective
